Our source for the Ki values is patent publication US8053553B2, “Targeting host proteinases as a therapeutic strategy against viral and bacterial pathogens” (Socpra Sciences Sante Et Humaines, priority 2007, dated 2011).

Non-standard residues stand in square brackets, D forms with d. Residues, ends and D or L forms follow the SMILES beside them. Sar = CNCC(=O)O

T1 sequence (P09958 108-794 limits assumed): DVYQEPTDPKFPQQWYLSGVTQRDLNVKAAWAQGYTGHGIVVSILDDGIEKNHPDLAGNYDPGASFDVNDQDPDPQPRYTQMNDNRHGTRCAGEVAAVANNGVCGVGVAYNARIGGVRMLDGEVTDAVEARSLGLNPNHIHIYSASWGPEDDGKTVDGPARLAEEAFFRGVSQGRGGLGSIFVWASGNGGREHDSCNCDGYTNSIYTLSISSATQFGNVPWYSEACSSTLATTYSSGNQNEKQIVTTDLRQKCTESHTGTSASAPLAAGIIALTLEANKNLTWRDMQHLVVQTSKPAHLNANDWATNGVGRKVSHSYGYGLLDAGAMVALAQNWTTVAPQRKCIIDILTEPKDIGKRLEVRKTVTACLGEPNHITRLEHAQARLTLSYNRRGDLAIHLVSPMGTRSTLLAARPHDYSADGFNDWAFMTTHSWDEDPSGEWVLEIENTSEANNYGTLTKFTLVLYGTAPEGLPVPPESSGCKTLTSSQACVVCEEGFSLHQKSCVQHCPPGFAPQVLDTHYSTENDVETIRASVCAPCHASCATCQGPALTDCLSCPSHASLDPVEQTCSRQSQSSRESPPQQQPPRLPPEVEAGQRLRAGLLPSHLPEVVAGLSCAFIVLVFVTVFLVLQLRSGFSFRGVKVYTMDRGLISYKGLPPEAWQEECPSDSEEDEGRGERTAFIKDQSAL

The first test addresses T1, furin (Homo sapiens, UniProt P09958).
T1 construct: made in house; host or cells: Drosophila S2 cells (Invitrogen expression system)
Kind of test: biochemical. Conditions: furin, Pyr-RTKR-AMC substrate; alanine scanning mutagenesis of the H5 furin cleavage sequence (Table 2); read-out: Ki.
Regarding `C[C@H](NC(=O)[C@H](C)NC(=O)[C@H](CCCNC(=N)N)NC(=O)[C@@H]1CCCN1C(=O)[C@@H](N)[C@@H](C)O)C(=O)N[C@@H](CCCNC(=N)N)C(=O)N[C@@H](CCCNC(=N)N)C(=O)N[C@@H](CCCCN)C(=O)N[C@@H](CCCCN)C(=O)N[C@@H](CCCNC(=N)N)C(N)=O` (H-TPRAARRKKR-NH2), the Ki (commonly the dissociation constant of the complex between target and ligand, obtained from inhibition or displacement) is above 100 nM.

Regarding `C[C@H](NC(=O)[C@H](C)NC(=O)[C@H](CCCNC(=N)N)NC(=O)[C@@H]1CCCN1C(=O)[C@@H](N)[C@@H](C)O)C(=O)N[C@@H](CCCNC(=N)N)C(=O)N[C@@H](CCCNC(=N)N)C(=O)N[C@@H](CCCCN)C(=O)N[C@@H](CCCCN)C(=O)N[C@@H](CCCNC(=N)N)C(=O)NCC(N)=O` (H-TPRAARRKKRG-NH2), the Ki is above 100 nM. On the same count and under the same terms, for `CC(C)[C@H](NC(=O)[C@H](CCCNC(=N)N)NC(=O)[C@H](CCCCN)NC(=O)[C@H](CCCCN)NC(=O)[C@H](CCCNC(=N)N)NC(=O)[C@H](CCCNC(=N)N)NC(=O)[C@H](C)NC(=O)[C@H](C)NC(=O)[C@H](CCCNC(=N)N)NC(=O)[C@@H]1CCCN1C(=O)[C@@H](N)[C@@H](C)O)C(N)=O` (H-TPRAARRKKRV-NH2) the value was above 100 nM; for `C[C@H](NC(=O)[C@H](C)NC(=O)[C@H](CCCNC(=N)N)NC(=O)[C@@H]1CCCN1C(=O)[C@@H](N)[C@@H](C)O)C(=O)N[C@@H](CCCNC(=N)N)C(=O)N[C@@H](CCCNC(=N)N)C(=O)N[C@@H](CCCCN)C(=O)N[C@@H](CCCCN)C(=O)N[C@@H](CCCNC(=N)N)C(=O)N(C)CC(N)=O` (H-TPRAARRKKR[Sar]-NH2), above 100 nM; for `C[C@H](NC(=O)[C@H](C)NC(=O)[C@H](CCC(=O)O)NC(=O)[C@H](CCCNC(=N)N)NC(=O)[C@@H]1CCCN1C(=O)[C@@H](N)[C@@H](C)O)C(=O)N[C@@H](C)C(=O)N[C@@H](CCCCN)C(=O)N[C@@H](CCCCN)C(=O)N[C@@H](CCCNC(=N)N)C(N)=O` (H-TPREAAAKKR-NH2), above 100 nM.

The same test, now with this note: furin, Pyr-RTKR-AMC substrate; optimization of the inhibitory peptides (Table 3); read-out: Ki.
Turning to `C[C@@H](O)[C@H](N)C(=O)N1CCC[C@H]1C(=O)N[C@@H](CCC(N)=O)C(=O)N[C@@H](CCCNC(=N)N)C(=O)N[C@@H](Cc1ccccc1)C(=O)N[C@@H](CCCNC(=N)N)C(=O)N[C@@H](CCCNC(=N)N)C(=O)N[C@@H](CCCNC(=N)N)C(=O)N[C@@H](CCCCN)C(=O)N[C@@H](CCCCN)C(=O)N[C@@H](CCCNC(=N)N)C(=O)NCC(N)=O` (H-TPQRFRRRKKRG-NH2), the Ki was above 100 nM.

For `C[C@@H](O)[C@H](N)C(=O)N1CCC[C@H]1C(=O)N[C@@H](CCC(N)=O)C(=O)N[C@@H](CCCNC(=N)N)C(=O)NCC(=O)N[C@@H](CCCNC(=N)N)C(=O)N[C@@H](CCCNC(=N)N)C(=O)N[C@@H](CCCNC(=N)N)C(=O)N[C@@H](CCCCN)C(=O)N[C@@H](CCCCN)C(=O)N[C@@H](CCCNC(=N)N)C(=O)NCC(N)=O` (H-TPQRGRRRKKRG-NH2), the Ki is above 100 nM.

Take `C[C@@H](O)[C@H](N)C(=O)N1CCC[C@H]1C(=O)N[C@@H](CCC(N)=O)C(=O)N[C@@H](CCCNC(=N)N)C(=O)N[C@@H](Cc1c[nH]cn1)C(=O)N[C@@H](CCCNC(=N)N)C(=O)N[C@@H](CCCNC(=N)N)C(=O)N[C@@H](CCCNC(=N)N)C(=O)N[C@@H](CCCCN)C(=O)N[C@@H](CCCCN)C(=O)N[C@@H](CCCNC(=N)N)C(=O)NCC(N)=O` (H-TPQRHRRRKKRG-NH2): the inhibitory constant (Ki) is above 100 nM. Same read-out and setting: for `CC[C@H](C)[C@H](NC(=O)[C@H](CCCNC(=N)N)NC(=O)[C@H](CCC(N)=O)NC(=O)[C@@H]1CCCN1C(=O)[C@@H](N)[C@@H](C)O)C(=O)N[C@@H](CCCNC(=N)N)C(=O)N[C@@H](CCCNC(=N)N)C(=O)N[C@@H](CCCNC(=N)N)C(=O)N[C@@H](CCCCN)C(=O)N[C@@H](CCCCN)C(=O)N[C@@H](CCCNC(=N)N)C(=O)NCC(N)=O` (H-TPQRIRRRKKRG-NH2) the value was above 100 nM; for `C[C@@H](O)[C@H](N)C(=O)N1CCC[C@H]1C(=O)N[C@@H](CCC(N)=O)C(=O)N[C@@H](CCCNC(=N)N)C(=O)N[C@@H](CC(N)=O)C(=O)N[C@@H](CCCNC(=N)N)C(=O)N[C@@H](CCCNC(=N)N)C(=O)N[C@@H](CCCNC(=N)N)C(=O)N[C@@H](CCCCN)C(=O)N[C@@H](CCCCN)C(=O)N[C@@H](CCCNC(=N)N)C(=O)NCC(N)=O` (H-TPQRNRRRKKRG-NH2), above 100 nM.

As for `C[C@@H](O)[C@H](N)C(=O)N1CCC[C@H]1C(=O)N[C@@H](CCC(N)=O)C(=O)N[C@@H](CCCNC(=N)N)C(=O)N1CCC[C@H]1C(=O)N[C@@H](CCCNC(=N)N)C(=O)N[C@@H](CCCNC(=N)N)C(=O)N[C@@H](CCCNC(=N)N)C(=O)N[C@@H](CCCCN)C(=O)N[C@@H](CCCCN)C(=O)N[C@@H](CCCNC(=N)N)C(=O)NCC(N)=O` (H-TPQRPRRRKKRG-NH2), the Ki was above 100 nM. For `C[C@@H](O)[C@H](N)C(=O)N1CCC[C@H]1C(=O)N[C@@H](CCC(N)=O)C(=O)N[C@@H](CCCNC(=N)N)C(=O)N[C@@H](CCC(N)=O)C(=O)N[C@@H](CCCNC(=N)N)C(=O)N[C@@H](CCCNC(=N)N)C(=O)N[C@@H](CCCNC(=N)N)C(=O)N[C@@H](CCCCN)C(=O)N[C@@H](CCCCN)C(=O)N[C@@H](CCCNC(=N)N)C(=O)NCC(N)=O` (H-TPQRQRRRKKRG-NH2), the Ki was above 100 nM. The same measure, in the same setting: for `C[C@@H](O)[C@H](N)C(=O)N1CCC[C@H]1C(=O)N[C@@H](CCC(N)=O)C(=O)N[C@@H](CCCNC(=N)N)C(=O)N[C@@H](CO)C(=O)N[C@@H](CCCNC(=N)N)C(=O)N[C@@H](CCCNC(=N)N)C(=O)N[C@@H](CCCNC(=N)N)C(=O)N[C@@H](CCCCN)C(=O)N[C@@H](CCCCN)C(=O)N[C@@H](CCCNC(=N)N)C(=O)NCC(N)=O` (H-TPQRSRRRKKRG-NH2) the value was above 100 nM; for `C[C@@H](O)[C@H](N)C(=O)N1CCC[C@H]1C(=O)N[C@@H](CCC(N)=O)C(=O)N[C@@H](CCCNC(=N)N)C(=O)N[C@H](C(=O)N[C@@H](CCCNC(=N)N)C(=O)N[C@@H](CCCNC(=N)N)C(=O)N[C@@H](CCCNC(=N)N)C(=O)N[C@@H](CCCCN)C(=O)N[C@@H](CCCCN)C(=O)N[C@@H](CCCNC(=N)N)C(=O)NCC(N)=O)[C@@H](C)O` (H-TPQRTRRRKKRG-NH2), above 100 nM. For the compound `CC(C)[C@H](NC(=O)[C@H](CCCNC(=N)N)NC(=O)[C@H](CCC(N)=O)NC(=O)[C@@H]1CCCN1C(=O)[C@@H](N)[C@@H](C)O)C(=O)N[C@@H](CCCNC(=N)N)C(=O)N[C@@H](CCCNC(=N)N)C(=O)N[C@@H](CCCNC(=N)N)C(=O)N[C@@H](CCCCN)C(=O)N[C@@H](CCCCN)C(=O)N[C@@H](CCCNC(=N)N)C(=O)NCC(N)=O` (H-TPQRVRRRKKRG-NH2), the Ki was above 100 nM. Same read-out and setting: for `C[C@@H](O)[C@H](N)C(=O)N1CCC[C@H]1C(=O)N[C@@H](CCC(N)=O)C(=O)N[C@@H](CCCNC(=N)N)C(=O)N[C@@H](Cc1c[nH]c2ccccc12)C(=O)N[C@@H](CCCNC(=N)N)C(=O)N[C@@H](CCCNC(=N)N)C(=O)N[C@@H](CCCNC(=N)N)C(=O)N[C@@H](CCCCN)C(=O)N[C@@H](CCCCN)C(=O)N[C@@H](CCCNC(=N)N)C(=O)NCC(N)=O` (H-TPQRWRRRKKRG-NH2) the value was above 100 nM. The same measure, in the same setting: for `C[C@@H](O)[C@H](N)C(=O)N1CCC[C@H]1C(=O)N[C@@H](CCC(N)=O)C(=O)N[C@@H](CCCNC(=N)N)C(=O)N[C@@H](Cc1ccc(O)cc1)C(=O)N[C@@H](CCCNC(=N)N)C(=O)N[C@@H](CCCNC(=N)N)C(=O)N[C@@H](CCCNC(=N)N)C(=O)N[C@@H](CCCCN)C(=O)N[C@@H](CCCCN)C(=O)N[C@@H](CCCNC(=N)N)C(=O)NCC(N)=O` (H-TPQRYRRRKKRG-NH2) the value was above 100 nM.
